The source of these data is article PMC7485941 (Clinical and Translational Science, 2020).

Usually Cmax stands for the peak of the concentration-time curve. Broadly, the half-life is the time in which the quantity being followed falls by half. Broadly, the Tmax is the time from dosing to the highest level.

For one data set, the system named is QTc interval. To be noted: therapeutic and supratherapeutic concentrations; cited from earlier work.
Data set [1] concerns healthy subjects. In words: Concentration-QTc. The format is in vivo, human. The settings on record: for Predicted (90% CI) ΔΔQTcF at geometric mean peak concentration: PK/QTc population.
Data set [2] relates to healthy subjects. The experiment in a line: 12-lead ECG by time-point and categorical outlier analysis in the TQT study. The format is in vivo, human.
The test system of data set [3] is healthy subjects. In words: Safety and tolerability. It is filed as in vivo, human. To be noted: for overall percentage of TEAEs: part B.
In the next data set the test system is hERG channels. The experiment in a line: In vitro hERG ion channel assay. The settings on record: 160 mg twice daily. It is filed as cell-based, human.
Data set [4] in a line: Plasma pharmacokinetics in the TQT study. The settings on record: for Cmax: Geometric mean Cmax (90% CI), PK/QTc population.
For data set [5] the following is noted: cited from earlier work.

“Also recorded” adds a separate entry of the source.

Regarding `CC#CC(=O)N1CCC[C@H]1c1nc(-c2ccc(C(=O)Nc3ccccn3)cc2)c2c(N)nccn12` [acalabrutinib], the “effect on QTc interval” value in the data set on QTc interval is “not to prolong the QTc interval”.
Turning to `COc1c(N2C[C@@H]3CCCN[C@@H]3C2)c(F)cc2c(=O)c(C(=O)O)cn(C3CC3)c12` [Moxifloxacin, moxifloxacin, reference compound], in the data set on healthy subjects [1] (moxifloxacin), the “estimated population slope of the C-QTc relationship” value was 0.005 msec per ng/mL and the “intercept of the C-QTc relationship” value is 3.1 ms. Further, the “peak effect, mean ΔΔQTcF” value in the data set with healthy subjects [2] (moxifloxacin 400 mg, at 2.5 hours postdose) was 12.9 ms. Besides, in the data set with healthy subjects [2] (moxifloxacin 400 mg, between 1 and 4 hours postdose), the “mean ΔΔQTcF” value is “above 10 msec”. Moreover, in the data set with healthy subjects [3] (moxifloxacin 400 mg), the “overall percentage of TEAEs” value is 22.2%.
`C=CC(=O)N1CCC([C@@H]2CCNc3c(C(N)=O)c(-c4ccc(Oc5ccccc5)cc4)nn32)CC1` [Zanubrutinib]: the “exposure margin, hERG IC50 over clinical steady-state unbound Cmax” value with hERG channels is on record as ~ 217 fold. Besides, the “highest observed plasma concentration in the TQT study” value in data set [4] (concentration range included in C-QTc modeling) is “≈ 800 ng/mL”. In addition, the Cmax in data set [4] (human, in vivo, 160 mg, n = 27) was 215 ng/mL; in data set [4] (human, in vivo, 480 mg, n = 28), 401 ng/mL. The half-life in data set [4] (human, in vivo, 480 mg, mean t ½, 480-mg dose, range over part A and part B) was in the range of 8.1 to 11 h. The Tmax in data set [4] (human, in vivo, 480 mg, median Tmax, range over part A and part B, 160 and 480 mg, postdose) lay in the range of 1.5 to 2.8 h. Also, the “Predicted (90% CI) ΔΔQTcF at geometric mean peak concentration” value with healthy subjects [1] (160 mg, n = 27) was −3.16 (−4.51 to −1.81) msec; with healthy subjects [1] (480 mg, n = 28), −3.38 (−4.86 to −1.89) msec. The “Mean placebo-corrected change from baseline heart rate (ΔΔHR), magnitude (±)” value in the data set with healthy subjects [2] (all postdose time points, 160 and 480 mg) is less than 5 bpm. In addition, in the data set on healthy subjects [2] (all time points after dosing with zanubrutinib), the “Mean ΔΔPR” value was less than 5 ms. For the same molecule, in the data set with healthy subjects [2] (any postdose time point, both zanubrutinib doses), the “upper bound of the 90% CI of ΔΔQTcF” value is not above 1.2 ms. For the same molecule, the “participants with HR outlier values” in the data set on healthy subjects [2] (categorical outlier analysis) was “no participant with HR outlier values”. Besides, the “participants with outlier QTcF values (> 450 msec)” value with healthy subjects [2] (categorical outlier analysis, zanubrutinib 160 and 480 mg) is reported as “No participants had outlier QTcF values; also recorded: no participant had outlier values”. Moreover, the “participants with outlier ΔQTcF values (> 30 msec)” value with healthy subjects [2] (categorical outlier analysis, zanubrutinib groups) was “No participant had outlier ΔQTcF values”. For the same molecule, the “effect on QTc interval” value with healthy subjects [2] (single 160-mg or 480-mg dose) is given as “did not prolong the QTc interval”. Further, the “SAEs or grade 3 or higher AEs related to administration” value in the data set with healthy subjects [3] (part A, 480 mg single dose, n = 6) is “no SAEs or grade 3 or higher AEs”. For the same molecule, the “overall percentage of TEAEs” value in the data set with healthy subjects [3] (zanubrutinib 160 mg) amounted to 10.0%; with healthy subjects [3] (zanubrutinib 480 mg), 13.3%. Moreover, the “mean Cmax” value in data set [5] (160 mg, patients with B-cell malignancy) is 346 ng/mL. In addition, the “mean terminal elimination half-life (t ½)” value in data set [5] (oral administration) was 2 to 4 h. For the same molecule, the “clinical steady-state unbound Cmax” value in data set [5] (recommended phase III dose of 160 mg twice daily, no reference given) was 42 nM.
